Test results as given in patent US20260042801A1, “COMPOSITIONS AND METHODS FOR DYE-BOUND CYCLIZED PEPTIDES FOR MEDICAL USE” (The Texas A&M University System, priority 2022, published 2026).

What was measured:
[1] = tested on: severe T8 contusion/compression SCI; assay: Preclinical SCI model: Novel Object Recognition (NOR); type: in vivo, mouse; conditions: 7 weeks post injury, 24-hr interval
Protocol: 8-week-old male mice with a severe T8 contusion/compression SCI were injected IP daily with 5c(i) for 7 weeks (5 and 25 mg/kg/day). 7 weeks post injury, NOR was conducted. 10A) The total number of independent visits to novel object. 10B) Latency to visit novel object. 10C) The ratio of time spent with objects (novel/familiar ratio). […] N=6-8. Graphs show mean and SEM. # (p<0.1) * (p<0.05) ** (p<0.01) *** (p<0.001) **** (p<0.0001). Student's T-test.
Male mice at 8 weeks of age underwent surgery to sustain an SCI. The spinalis thoracis muscle was lacerated to perform a laminectomy at T7-T9 to expose the spinal cord while keeping the dura intact. The mice were then clamped using 2 pairs of Adson forceps before using the Infinite Horizon Impactor at 50 kdyn of force (the contusion) with a 2 second dwell time (the compression) to induce a severe T8 contusion and compression. Self-degrading Catgut sutures were utilized for the closure of the spinalis thoracis muscle before the skin was glued shut with 3M VETBOND™ (n-butyl cyanoacrylate adhesive veterinary tissue adhesive) Tissue Adhesive. All procedures and instruments used for surgery were sterilized prior to surgery to prevent infections. After surgery, mice recovered in a warmed cage and then moved to a cage set at room temperature provided with food and water ad libitum. All surgeries were performed in the morning (8 am-12 pm) to limit potential circadian clock impact. Behavioral assays were performed at the same time in the morning for all the cohorts for the same reason. For the administration of pharmaceutical agents, the vehicle was 0.6 mL/kg of 100% dimethyl sulfoxide (DMSO). 5c(i) (at 5 and 25 mg/kg/day) diluted in vehicle or vehicle alone was administered once daily through intraperitoneal (IP) injections at a volume of 0.6 mL/kg/day. […]
7 weeks after SCI, all post injury cognitive testing was conducted. Novel Object Recognition (NOR): Mice were placed in the empty open field white box for 5 min and recorded. […] Behavioral patterns with respect to the novel and familiar objects was recorded and analyzed. […]

[2] = tested on: C3; assay: Astrocyte C3 staining (fluorescent intensity); type: cell-based, mouse; conditions: astrocytes from 6-month-old male mice, 5 μM, 3 days
Protocol: (§1) FIGS. 4A-4D: 5c(i) induces Synapsin I production and reduces C3 and GSK-3s expression from astrocytes promoting neuron survival and neurite growth. Primary adult cortical astrocytes from 6-month-old male mice were incubated with 5 μM 5c(i) for 3 days. Graph represents mean±SEM of percent change in fluorescent intensity (Synapsin I and C3) or chemiluminescence (GSK-3β) relative to Vehicle (4A and 4D). Images represent the 4B) Vehicle and 4C) 5 μM 5c(i) treated groups stained with Synapsin I and DAPI. D) Cortical astrocytes from 6-month-old male mice were plated and treated with 5c(i) or Vehicle for 2 days. Cells were then washed and cortical neurons from 6-month-old male mice were added on top of the astrocytes. […] Scale bar=50 μm.
(§2) To determine if 5c(i) can modulate astrocytes, adult astrocytes from 6-month-old male mice were treated with 5c(i) for 3 days and stained with Synapsin I and C3 to measure changes in fluorescent intensity or western blot was conducted on the cell lysate to assess changes in GSK-3β expression (FIG. 4). […] To determine if 5c(i) treated astrocytes can directly benefit neuronal recovery, astrocytes were cultured with 5c(i) for 2 days before removing 5c(i) from the culture and plating adult neurons on top of the astrocytes for 2DIV, resulting in increased neuron survival and neurite growth. […]

[3] = tested on: GSK-3β; assay: Astrocyte GSK-3β western blot; type: cell-based, mouse; conditions: astrocytes from 6-month-old male mice, 5 μM, 3 days, cell lysate
Protocol: as §1, §2

[4] = Blood-brain and blood-spinal cord barrier penetration after IP administration; type: in vivo; conditions: uninjured mouse, IP 60 mg/kg, 1 hour, intrinsic fluorescence
Protocol: FIG. 6: 5c(i) penetrates the blood-brain and -spinal cord barriers. 4-month-old uninjured female mouse was IP administered 60 mg/kg 5c(i). The mouse was euthanized 1 hour after 5c(i) administration and perfused with PFA. The spinal cord was dissected and sectioned sagittal at 25 μm and stained with NeuN and DAPI. The brain was dissected and sectioned coronal at 50 μm and stained with GFAP and DAPI. 5c(i) was identified through its intrinsic fluorescence. Scale bar=100 μm.
This is highly significant as most drugs cannot penetrate the central nervous system (CNS), resulting in very costly late-stage failures in CNS drug development^94. 5c(i) therefore in specific embodiments can cross the BBB and target the brain, such as through IP administration, for indications relating to brain function, such as AD and stroke. 5c(i) has even higher potential for penetrating the CNS after SCI when permeability is increased^95-97.

[5] = mouse, in vivo
Protocol: 8-week-old male mice with a severe T8 contusion/compression SCI were injected IP daily with 5c(i) for 7 weeks (5 and 25 mg/kg/day). […] 7 weeks post injury, heparinized plasma was collected and 12B) alanine aminotransferase (ALT), 12C) alkaline phosphatase (ALP), 12D) aspartate aminotransferase (AST), and 12E) blood urea nitrogen (BUN) levels were assessed. […] N=6-8. Graphs show mean and SEM. # (p<0.1) * (p<0.05) ** (p<0.01) *** (p<0.001) **** (p<0.0001). Student's T-test.
For the administration of pharmaceutical agents, the vehicle was 0.6 mL/kg of 100% dimethyl sulfoxide (DMSO). 5c(i) (at 5 and 25 mg/kg/day) diluted in vehicle or vehicle alone was administered once daily through intraperitoneal (IP) injections at a volume of 0.6 mL/kg/day.
Seven weeks after injury, histological analysis was performed on livers, and toxicology screens were conducted on plasma (FIG. 12).

Substance: C-DIRG-C BODIPY® (fluorescent dye) [5c(i)]
- latency to visit novel object [1]: reduced latency to visit
- preference for the novel object [1]: increased preference
- visits to novel object [1]: more visits
- C3 expression [2]: reduction
- GSK-3β expression [3]: reduction
- penetration of blood-brain barrier (BBB) [4]: easily penetrate
- penetration of blood-spinal cord barrier (BSCB) [4]: easily penetrate
- alanine aminotransferase (ALT) [5]: does not alter
- alkaline phosphatase (ALP) [5]: does not alter
- aspartate aminotransferase (AST) [5]: does not alter
- blood urea nitrogen (BUN) [5]: does not alter
